The values below come from ChEMBL document CHEMBL1759905, “Nonsteroidal 2,3-dihydroquinoline glucocorticoid receptor agonists with reduced PEPCK activation” (Bioorg Med Chem Lett, 2011).

pIC50, pKi: −log10 of the molar value.

For one test, the target named is T1, Androgen receptor (Homo sapiens, UniProt P10275).
T1 sequence (P10275 whole entry): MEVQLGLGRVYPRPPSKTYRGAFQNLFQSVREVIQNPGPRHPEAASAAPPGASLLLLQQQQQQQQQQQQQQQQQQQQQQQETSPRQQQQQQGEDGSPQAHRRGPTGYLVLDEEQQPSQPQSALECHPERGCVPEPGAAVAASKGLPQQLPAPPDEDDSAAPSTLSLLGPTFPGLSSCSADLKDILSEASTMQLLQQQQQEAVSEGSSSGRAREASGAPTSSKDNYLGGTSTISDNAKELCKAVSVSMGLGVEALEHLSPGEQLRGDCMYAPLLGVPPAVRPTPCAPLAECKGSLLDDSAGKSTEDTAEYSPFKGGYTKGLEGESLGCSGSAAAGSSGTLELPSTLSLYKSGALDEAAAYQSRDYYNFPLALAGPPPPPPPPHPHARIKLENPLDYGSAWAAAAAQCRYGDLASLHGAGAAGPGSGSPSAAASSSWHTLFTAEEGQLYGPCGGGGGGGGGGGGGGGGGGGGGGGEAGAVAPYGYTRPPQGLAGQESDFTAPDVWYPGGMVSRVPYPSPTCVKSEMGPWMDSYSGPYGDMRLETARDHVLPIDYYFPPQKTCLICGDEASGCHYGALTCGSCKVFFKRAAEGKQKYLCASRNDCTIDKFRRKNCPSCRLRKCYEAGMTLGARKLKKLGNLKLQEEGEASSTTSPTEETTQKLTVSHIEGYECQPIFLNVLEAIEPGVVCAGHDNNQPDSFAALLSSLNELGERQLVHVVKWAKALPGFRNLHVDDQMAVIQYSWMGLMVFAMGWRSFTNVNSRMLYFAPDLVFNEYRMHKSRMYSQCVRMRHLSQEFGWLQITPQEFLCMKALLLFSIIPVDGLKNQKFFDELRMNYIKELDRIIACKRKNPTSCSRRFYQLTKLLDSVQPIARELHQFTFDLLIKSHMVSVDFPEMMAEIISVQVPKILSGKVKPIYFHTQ
Nature of the test: Binding affinity to androgen receptor.

The target in test [1] is T2, Glucocorticoid receptor (Homo sapiens, UniProt P04150).
T2 sequence (P04150 whole entry): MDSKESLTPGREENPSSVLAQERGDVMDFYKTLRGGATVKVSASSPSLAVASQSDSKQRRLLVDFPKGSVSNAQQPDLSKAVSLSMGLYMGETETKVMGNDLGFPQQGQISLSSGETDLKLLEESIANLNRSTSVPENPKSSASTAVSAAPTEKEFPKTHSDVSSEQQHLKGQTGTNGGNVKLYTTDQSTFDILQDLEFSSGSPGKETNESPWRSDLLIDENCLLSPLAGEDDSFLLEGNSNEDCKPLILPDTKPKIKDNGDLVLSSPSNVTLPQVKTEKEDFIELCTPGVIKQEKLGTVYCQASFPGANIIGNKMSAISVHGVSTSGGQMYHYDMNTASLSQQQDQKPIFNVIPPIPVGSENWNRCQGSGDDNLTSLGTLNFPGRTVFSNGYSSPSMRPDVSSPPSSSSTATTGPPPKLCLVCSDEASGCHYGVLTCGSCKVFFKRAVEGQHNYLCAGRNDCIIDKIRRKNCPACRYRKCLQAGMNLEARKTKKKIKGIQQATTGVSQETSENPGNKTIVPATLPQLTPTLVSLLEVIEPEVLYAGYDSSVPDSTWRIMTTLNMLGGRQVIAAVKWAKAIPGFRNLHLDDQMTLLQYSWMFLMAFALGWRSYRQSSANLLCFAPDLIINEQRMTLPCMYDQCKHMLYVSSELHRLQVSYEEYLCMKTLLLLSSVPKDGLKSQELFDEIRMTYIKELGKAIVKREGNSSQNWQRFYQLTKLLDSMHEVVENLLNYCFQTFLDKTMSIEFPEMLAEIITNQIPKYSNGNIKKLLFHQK
Nature of the test: Transrepression activity at glucocorticoid receptor in human HepG2 cells assessed as inhibition of TNFalpha/IL1beta-stimulated NFkappaB-dependent E-selectin repression by luciferase reporter gene assay. In kind it is cell-based. (In general: In a reporter assay the amount or activity of a reporter protein is the signal.)

The target of test [2] is T3, Glucocorticoid receptor (Homo sapiens) (UniProt P04150).
T3 sequence (whole entry): T2 sequence (P04150 whole entry)
Nature of the test: Agonist activity at glucocorticoid receptor in human HepG2 cells co-transfected with PEPCK assessed as GRE activation by luciferase reporter gene assay relative to Dexamethasone. The class given is functional, cell-based.

The target in test [3] is T3, Glucocorticoid receptor (Homo sapiens). Nature of the test: Agonist activity at glucocorticoid receptor in human HepG2 cells co-transfected with GRE assessed as GRE activation by luciferase reporter gene assay relative to Dexamethasone. On the set-up: concentration or dose not given beside the values. The class given is functional, cell-based.
The target is the same in test [4]. Nature of the test: Transrepression activity at glucocorticoid receptor in human HepG2 cells assessed as inhibition of TNFalpha/IL1beta-stimulated NFkappaB-dependent E-selectin repression by luciferase reporter gene assay relative to Dexamethasone. The class given is cell-based. Set-up: scale not given: the % may be the effect or the level left.
The target of test [5] is T2, Glucocorticoid receptor. Briefly: Displacement of radiolabeled Dexamethasone from glucocorticoid receptor expressed in baculovirus.
A further test has as its target T4, Progesterone receptor (Homo sapiens, UniProt P06401).
T4 sequence (P06401 whole entry): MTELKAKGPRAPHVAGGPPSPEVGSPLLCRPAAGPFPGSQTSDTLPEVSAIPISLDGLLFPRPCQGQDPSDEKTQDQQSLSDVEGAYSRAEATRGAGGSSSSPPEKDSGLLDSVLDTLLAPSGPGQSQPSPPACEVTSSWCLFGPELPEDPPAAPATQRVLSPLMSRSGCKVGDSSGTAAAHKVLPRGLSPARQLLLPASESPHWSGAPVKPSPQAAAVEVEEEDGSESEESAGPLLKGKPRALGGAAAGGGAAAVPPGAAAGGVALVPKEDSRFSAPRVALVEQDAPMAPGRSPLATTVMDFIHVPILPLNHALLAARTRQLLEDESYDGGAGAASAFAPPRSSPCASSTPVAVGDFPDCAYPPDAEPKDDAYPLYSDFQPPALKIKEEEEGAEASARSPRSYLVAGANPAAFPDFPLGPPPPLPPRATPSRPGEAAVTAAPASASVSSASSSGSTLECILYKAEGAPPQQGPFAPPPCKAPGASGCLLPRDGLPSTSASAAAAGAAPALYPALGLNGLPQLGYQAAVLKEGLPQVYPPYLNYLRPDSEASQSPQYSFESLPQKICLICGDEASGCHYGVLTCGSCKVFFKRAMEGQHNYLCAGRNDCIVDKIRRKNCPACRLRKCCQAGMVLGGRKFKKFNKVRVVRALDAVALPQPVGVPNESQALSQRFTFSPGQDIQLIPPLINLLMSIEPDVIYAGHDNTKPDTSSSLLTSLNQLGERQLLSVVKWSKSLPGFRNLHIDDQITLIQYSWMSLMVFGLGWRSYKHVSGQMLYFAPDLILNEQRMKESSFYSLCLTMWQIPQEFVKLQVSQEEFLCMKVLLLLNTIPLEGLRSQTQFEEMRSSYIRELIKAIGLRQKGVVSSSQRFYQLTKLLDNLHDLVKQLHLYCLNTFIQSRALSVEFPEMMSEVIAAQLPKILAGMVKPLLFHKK
Nature of the test: Binding affinity to progesterone receptor.

Broadly, the pKi is the Ki on a negative log10 scale, so that one unit is a factor of ten. One may read the pIC50 as the negative decadic logarithm of the IC50, by convention in mol/L. With `Cc1c[nH]c2c(-c3c(F)cc4c(c3F)/C(=N/OC(C)C)CC(C)(C)N4)cccc12`, the pKi was 5.82 on Androgen receptor, 8.57 at Glucocorticoid receptor [5] and 6.42 on Progesterone receptor. Also, the pIC50 on Glucocorticoid receptor [1] is 8.31. Moreover, the Activity in test [2] came out at 35%; in test [3], 138%; in test [4], 90%.
On to `CC1(C)C/C(=N\OC(C)(C)C)c2c(cc(F)c(-c3cccc4c(Cl)c[nH]c34)c2F)N1`, for which the pKi at Androgen receptor is 7.05; at Glucocorticoid receptor [5], 8.70; on Progesterone receptor, 6.24. Further, the pIC50 on Glucocorticoid receptor [1] is 8.40. The Activity in test [2] stood at 27%; in test [3], 97%; in test [4] it was 94%.
`CO/N=C1/c2c(cc(F)c(-c3cccc4c(C)c[nH]c34)c2F)NC(C)(C)C1O` (racemic): the figures for the negative logarithm of the Ki (pKi) at Androgen receptor, on Glucocorticoid receptor [5] and on Progesterone receptor were 5.55, 8.42 and 5.42, respectively. Moreover, at Glucocorticoid receptor [1], the negative-log IC50 (pIC50) is 8.47. In addition, the Activity in test [2] was 79%; in test [3] it was 150%; in test [4], 96%.
`Cc1c[nH]c2c(-c3c(F)cc4c(c3F)/C(=N/OC(C)(C)C)CC(C)(C)N4)cccc12`: the pKi was 6.00 at Androgen receptor, 8.66 at Glucocorticoid receptor [5] and 6.66 at Progesterone receptor. Besides, the negative logarithm of the IC50 (pIC50) on Glucocorticoid receptor [1] is 8.25. The Activity was determined as 28% in test [2], 97% in test [3] and 91% in test [4].
Consider `Cc1c[nH]c2c(-c3c(F)cc4c(c3F)/C(=N/OC(C)(C)CO)CC(C)(C)N4)cccc12`, for which the negative-log Ki (pKi) on Androgen receptor is 6.54; on Glucocorticoid receptor [5], 9.10; at Progesterone receptor, 6.02. Besides, the pIC50 at Glucocorticoid receptor [1] was 7.92. In addition, the figures for the Activity in test [2], in test [3] and in test [4] were 22%, 130% and 91%, respectively.
